Experimental data from patent US8475940B2, “Anthracene derivative and light-emitting device” (Toppan Printing Co., Ltd., priority 2009, dated 2013).
Several values for one entry are separate records, joined by “and”; a condition that tells them apart may be missing. Equal entries are not always repeated.

Key:
[1] = background section, DSC; cited from earlier work
[2] = Solubility in toluene / organic solvents at ambient temperature; type: physicochemical; details: for solubility (concentration dissolved in toluene): ambient temperature; for solubility in organic solvents: aromatic solvents such as xylene, anisole, tetralin
Description: The compound 1 was dissolved with a concentration of 1.3 mg in 1 ml of toluene at ambient temperature and used as a light-emitting dopant for a blue light-emitting layer ink, which could be applied to form a film.
The isomer component 1 of compound 2 was dissolved in a concentration of 34 mg in 1 ml of toluene at ambient temperature and used for ink that formed each layer of an organic EL as a carrier transport layer, each color light-emitting host and light-emitting dopant, thereby enabling the formation of a coating film.
The compound 3 was dissolved in a concentration of 150 mg in 1 ml of toluene at ambient temperature and used for ink that formed each layer of an organic EL as a carrier transport layer, each color light-emitting host, or blue light-emitting dopant, thereby enabling the formation of a coating film.
Further, the compound 31 can be dissolved in various mixture solvents to be matched with the viscosities of various printing systems.
The compound 32 was soluble in a concentration of 6 mg in 1 ml of toluene at ambient temperature. When the compound 32 was gradually added to dissolve while heating on a hot plate, 34 mg of the compound 32 was dissolved when the temperature was returned to ambient temperature. The compound 32 can be used as an electron transportable carrier transport material and may be dissolved in an organic solvent such as toluene, xylene, anisole, and tetralin to add the obtained solution to ink for forming each layer of an organic EL, thereby forming a coating film.

[3] = Fluorescent spectrum of spin coat film (fluorophotometer RF-5300PC); type: physicochemical; details: for fluorescent peak wavelength: single-compound spin coat film on ITO transparent electroconductive glass, excitation 330-340 nm
Description: The fluorescent spectrum of a spin coat film of the compound 31 on an ITO transparent electroconductive glass was measured. The results correspond to a graph (0 wt %) of FIG. 8. The measurement was made by a fluorophotometer (trade name: RF-5300PC, manufactured by Shimadzu Corporation). The compound 31 emitted blue light having a fluorescent peak wavelength of 422 nm.
First, a fluorescent spectrum obtained when a film formed in a thickness of 41 nm by applying a solution of the compound 32 to the surface of an ITO transparent electroconductive glass by spin coating was excited by 340 nm light was obtained (solid line in FIG. 10). The measurement was made by a fluorophotometer (trade name: RF-5300PC, manufactured by Shimadzu Corporation). Blue light emission having a fluorescent peak wavelength of 424 nm was obtained.
A fluorescent spectrum obtained when a film was formed in the same manner as above by doping the compound 32 with 5 wt % of the compound 2 was measured in the same manner as above. The results are shown by the dotted line in FIG. 10. The fluorescent peak wavelength was 453 nm and pure blue light emission was obtained which was more intensified than the case where the compound 32 was not doped with the compound 2.
Xylene solutions containing only the compound 31, only the compound 33, and a mixture of the compound 31:compound 33:compound 3 (10:2:1 ratio by weight) such that each solid content was 2 wt % were respectively applied to a quarts plate by spin coating (rotated at 500 rpm for 5 sec and then at 1200 rpm for 60 sec) to form films having almost the same thickness, thereby measuring a fluorescent spectrum.

[4] = Energy level: ionization potential of spin coat film by surface analyzer AC-1, electron affinity by subtracting absorption-edge energy; type: physicochemical; details: for electron affinity: ionization potential minus absorption-edge energy; for ionization potential: spin coat film on ITO glass, surface analyzer AC-1; for Eg: energy difference between ionization potential and electron affinity
Description: (§1) A solution prepared by dissolving 1.3 mg of the compound 1 in 1 ml of toluene was applied to an ITO transparent electroconductive glass by spin coating to measure the ionization potential by a surface analyzer AC-1 manufactured by Riken Keiki Co., Ltd., to find that the ionization potential was 5.9 eV.
A solution prepared by dissolving 10 mg of the isomer component 1 of the compound 2 in 1 ml of toluene was applied to an ITO transparent electroconductive glass by spin coating to measure the ionization potential by a surface analyzer AC-1 manufactured by Riken Keiki Co., Ltd., to find that the ionization potential was 5.9 eV.
as §1, with “10” for “1.3”, “eV. The electron affinity obtained by subtracting the absorption-edge energy from the ionization potential was 3.0 eV.” for “eV.”
as §1, with “dissolving 10” for “dissolving 1.3”, “compound 31” for “compound 1”, “was 6.2” for “was 5.9”, “eV. The electron affinity obtained by subtracting absorption-edge energy from the ionization potential was 3.0 eV.” for “eV.”
as §1, with “dissolving 10” for “dissolving 1.3”, “compound 32” for “compound 1”, “was 6.2” for “was 5.9”, “eV. The electron affinity obtained by subtracting absorption-edge energy from the ionization potential was 3.0 eV.” for “eV.”

[5] = Optical deterioration of fluorescent intensity of film under 340 nm irradiation; type: physicochemical; details: irradiated with 340 nm light for 1,000 sec, slit 1.5 nm
Description: A film of the ink was formed on an ITO transparent electroconductive glass by spin coating and the fluorescent spectrum intensity was measured by a fluorophotometer (trade name: RF-5300PC, manufactured by Shimadzu Corporation) at an excitation spectrum of 340 nm.
Using a fluorophotometer (trade name: RF-5300PC, manufactured by Shimadzu Corporation) wherein the width of the slit for excitation light was changed to 1.5 nm, this light emitting film was successively irradiated with light having a wavelength of 340 nm for 1,000 sec, with the result that a single film of the isomer component 1 of the compound 2 was decreased in fluorescent intensity to 57% of the initial intensity and the single film of BTrSBF was decreased to 64% of the initial intensity whereas the film obtained by doping BTrSBF with 5 wt % of the compound 2 kept 74% of the initial intensity, showing that this film had the effect of suppressing the optical deterioration of fluorescent intensity.

[6] = Thermal analysis by DSC (glass transition temperature); type: physicochemical; details: for thermal stability: second heatup after rapid cooling, no exothermic or endothermic peak except Tg
Description: The glass transition temperature (Tg), crystallization temperature (Tc), and melting point (Tm) of the compound 1 were measured by EXSTAR6000 Series DSC6200 manufactured by Seiko Instruments Inc., at a temperature rise rate of 20° C./min. […] Tm was 493° C. to 513° C. (peak 504° C.).
The glass transition temperature (Tg), crystallization temperature (Tc), and melting point (Tm) of the isomer component 1 of the compound 2 were measured by an EXSTAR6000Series DSC6200 manufactured by Seiko Instruments Inc., at a temperature rise rate of 20° C./min.
The Tg, Tc, and Tm of the compound 33 measured by DSC were 240° C., 323° C., and 403° C. respectively.

CC(C)(C)c1ccc2c(-c3ccccc3-c3ccccc3)c3ccccc3c(-c3ccccc3-c3ccccc3)c2c1 [TBBPA, 9,10-di(biphenyl-2-yl)-2-t-butylanthracene]
glass transition temperature (Tg) of prior-art material [1]: about 74 °C

Cc1ccc(-c2nc(-c3ccc(C)cc3)nc(-c3ccc(-c4ccc5c(c4)C4(c6ccccc6-5)c5ccccc5-c5ccc(-c6ccc(-c7nc(-c8ccc(C)cc8)nc(-c8ccc(C)cc8)n7)cc6)cc54)cc3)n2)cc1 [compound 32]
amount dissolved after heating on a hot plate and return to ambient temperature ([2]; 1 ml of toluene, gradually added while heating, returned to ambient temperature): 34 mg
solubility (concentration dissolved in toluene) ([2]; toluene): 6 mg in 1 ml
fluorescent peak wavelength [3]: 424 nm
electron affinity [4]: 3.0 eV
ionization potential [4]: 6.2 eV

CC(C)(C)c1ccc(-c2nc(-c3ccc(-c4ccc5c(c4)C4(c6ccccc6-5)c5ccccc5-c5ccc(-c6ccc(-c7nc(-c8ccc(C(C)(C)C)cc8)nc(-c8ccc(C(C)(C)C)cc8)n7)cc6)cc54)cc3)nc(-c3ccc(C(C)(C)C)cc3)n2)cc1 [compound 31, 2,2′-bis(4-(2,4-bis(4-tert-butylphenyl)-1,3,5-triazine-6-yl)phenyl)-9,9′-spirobifluorene]
solubility in organic solvents ([2]; toluene): easily soluble
solubility (concentration dissolved in toluene) ([2]; toluene): 0.4 g in 1 ml
fluorescent peak wavelength [3]: 422 nm
fluorescent intensity remaining [5]: 64 % of the initial intensity
Eg [4]: 3.2 eV
electron affinity [4]: 3.0 eV
ionization potential [4]: 6.2 eV
thermal stability [6]: thermally stable glass-like material

CC(C)(C)c1ccc2c(-c3ccc4ccccc4c3)c3ccccc3c(-c3ccc4ccccc4c3)c2c1 [TBDNA, 9,10-di(2-naphthyl)-2-tertiarybutylanthracene]
glass transition temperature (Tg) of prior-art material [1]: about 128 °C

Cc1ccc2c(-c3ccccc3-c3ccc(-c4nc(-c5ccc(C(C)(C)C)cc5)nc(-c5ccc(C(C)(C)C)cc5)n4)cc3)c3ccccc3c(-c3ccccc3-c3ccc(-c4nc(-c5ccc(C(C)(C)C)cc5)nc(-c5ccc(C(C)(C)C)cc5)n4)cc3)c2c1 (single isomer, unassigned) [isomer component 1 of the compound 2, 2-methyl-9,10-bis{4-[2,4-bis(4-tert-butylphenyl)-1,3,5-triazine-6-yl]biphenyl-2′-yl}-anthracene]
solubility (concentration dissolved in toluene) ([2]; toluene): 34 mg in 1 ml
fluorescent intensity remaining [5]: 57 % of the initial intensity
electron affinity [4]: 2.9 eV
ionization potential [4]: 5.9 eV
thermal stability [6]: thermally very stable

CC(C)(C)c1ccc2c(c1)c1cc(C(C)(C)C)ccc1n2-c1ccc(-c2cc(-c3ccc(-n4c5ccc(C(C)(C)C)cc5c5cc(C(C)(C)C)ccc54)cc3)cc(-c3ccc(-n4c5ccc(C(C)(C)C)cc5c5cc(C(C)(C)C)ccc54)cc3)c2)cc1 [compound 33, 1,3,5-tris(4-(3,6-di-tert-butyl-N-carbazolyl)phenyl)benzene]
solubility in organic solvents ([2]; toluene): easily soluble
amount dissolved in general organic solvent ([2]; toluene, xylene, tetralin or mixture solvent): ≥ 10 wt %
fluorescent peak ([3]; spin coat film from xylene solution on quartz plate): 380 nm
electron affinity [4]: 2.8 eV
ionization potential [4]: 6.2 eV
glass transition temperature (Tg) ([6]; DSC, temperature rise rate 20° C./min): 240 °C

CC(C)(C)c1ccc(-c2nc(-c3ccc(-c4ccccc4-c4c5ccccc5c(-c5ccccc5-c5ccc(-c6nc(-c7ccc(C(C)(C)C)cc7)nc(-c7ccc(C(C)(C)C)cc7)n6)cc5)c5ccccc45)cc3)nc(-c3ccc(C(C)(C)C)cc3)n2)cc1 [compound 1, 9,10-bis{4-[2,4-bis(4-tert-butylphenyl)-1,3,5-triazine-6-yl]biphenyl-2′-yl}anthracene]
solubility (concentration dissolved in toluene) ([2]; toluene): 1.3 mg in 1 ml
fluorescent peak wavelength [3]: 448 nm
electron affinity [4]: 2.9 eV and 3.0 eV
ionization potential [4]: 5.9 eV

Cc1ccc2c(-c3ccccc3-c3ccc(-c4nc(-c5ccc(C(C)(C)C)cc5)nc(-c5ccc(C(C)(C)C)cc5)n4)cc3)c3ccccc3c(-c3ccccc3-c3ccc(-c4nc(-c5ccc(C(C)(C)C)cc5)nc(-c5ccc(C(C)(C)C)cc5)n4)cc3)c2c1 [compound 2, 2-methyl-9,10-bis{4-[2,4-bis(4-tert-butylphenyl)-1,3,5-triazine-6-yl]biphenyl-2′-yl}anthracene]
fluorescent peak wavelength [3]: 454 nm
Eg [4]: about 2.9 eV

CC(C)(C)c1ccc(-c2nc(-c3ccc(-c4ccccc4-c4c5ccccc5c(-c5ccccc5-c5ccc(-c6nc(-c7ccc(C(C)(C)C)cc7)nc(-c7ccc(C(C)(C)C)cc7)n6)cc5)c5cc(C(C)(C)C)ccc45)cc3)nc(-c3ccc(C(C)(C)C)cc3)n2)cc1 [compound 3, 2-tert-butyl-9,10-bis{4-[2,4-bis(4-tert-butylphenyl)-1,3,5-triazine-6-yl]biphenyl-2′-yl}anthracene]
solubility (concentration dissolved in toluene) ([2]; toluene): 150 mg in 1 ml
fluorescent peak wavelength [3]: 453 nm
thermal stability [6]: thermally very stable
